According to PubChem BioAssay AID272 (DTP/NCI, 2004):
Values joined by “and” are separate entries in the source; they are usually repeats but may differ in a detail not shown here. Equal entries are not always repeated. Records with an inconclusive call do not appear.

Test system: Lewis lung carcinoma i.m., BDF1 mice, T/C %
Assay: NCI In Vivo Anticancer Drug Screen. Data for tumor model Lewis Lung Carcinoma (intramuscular) in B6D2F1 (BDF1) mice
How it was run: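 Mice carrying transplantable tumours received test compound. Survival or tumour size was recorded and expressed as the treated-group value (T) divided by the vehicle-treated control-group value (C).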

COc1cccc2c1C(=O)c1c(O)c3c(c(O)c1C2=O)C[C@@](O)(C(=O)CO)C[C@@H]3OC1CC(N)C(O)C(C)O1 (stereo not given in full)
T/C (endpoint: median survival time, dose: 0.25 mg/kg/injection, schedule: Q01DX011 (ip), vehicle: water, higher = longer survival): 100 % of control and 120 % of control | T/C (endpoint: median survival time, dose: 0.65 mg/kg/injection, schedule: Q03HX008 (ip), vehicle: water, higher = longer survival): 100 % of control and 102 % of control | T/C (endpoint: median survival time, dose: 1.08 mg/kg/injection, schedule: Q03HX008 (ip), vehicle: water, higher = longer survival): 123 % of control | T/C (endpoint: median survival time, dose: 1.8 mg/kg/injection, schedule: Q03HX008 (ip), vehicle: water, higher = longer survival): 26 % of control | T/C (endpoint: median survival time, dose: 3.0 mg/kg/injection, schedule: Q03HX008 (ip), vehicle: water, higher = longer survival): 17 % of control

Cc1c(N)nc(C(CC(N)=O)NCC(N)C(N)=O)nc1C(=O)NC(C(=O)NC(C)C(O)C(C)C(=O)NC(C(=O)NCCc1nc(-c2nc(C(=O)NCCCCN=C(N)N)cs2)cs1)C(C)O)C(OC1OC(CO)C(O)C(O)C1OC1OC(CO)C(O)C(OC(N)=O)C1O)c1cnc[nH]1 (stereo not given)
T/C (endpoint: median survival time, dose: 3.9 mg/kg/injection, schedule: Q01DX011 (ip), vehicle: saline, higher = longer survival): 122 % of control | T/C (endpoint: median survival time, dose: 6.5 mg/kg/injection, schedule: Q01DX011 (ip), vehicle: saline, higher = longer survival): 112 % of control | T/C (endpoint: median survival time, dose: 10.8 mg/kg/injection, schedule: Q01DX011 (ip), vehicle: saline, higher = longer survival): 150 % of control | T/C (endpoint: median survival time, dose: 18.0 mg/kg/injection, schedule: Q01DX011 (ip), vehicle: saline, higher = longer survival): 170 % of control | T/C (endpoint: median survival time, dose: 30.0 mg/kg/injection, schedule: Q01DX011 (ip), vehicle: saline, higher = longer survival): 168 % of control

O=C(CBr)OCCOc1ccccc1
T/C (endpoint: mean tumor weight (est.), dose: 5.0 mg/kg/injection, schedule: Q01DX011 (ip), vehicle: saline with Tween-80, higher = larger tumour): 85 % of control | T/C (endpoint: mean tumor weight (est.), dose: 10.0 mg/kg/injection, schedule: Q01DX011 (ip), vehicle: saline with Tween-80, higher = larger tumour): 93 % of control | T/C (endpoint: mean tumor weight (est.), dose: 20.0 mg/kg/injection, schedule: Q01DX011 (ip), vehicle: saline with Tween-80, higher = larger tumour): 85 % of control | T/C (endpoint: median survival time, dose: 5.0 mg/kg/injection, schedule: Q01DX011 (ip), vehicle: saline with Tween-80, higher = longer survival): 88 % of control | T/C (endpoint: median survival time, dose: 10.0 mg/kg/injection, schedule: Q01DX011 (ip), vehicle: saline with Tween-80, higher = longer survival): 104 % of control | T/C (endpoint: median survival time, dose: 20.0 mg/kg/injection, schedule: Q01DX011 (ip), vehicle: saline with Tween-80, higher = longer survival): 108 % of control

OCC1OC(n2cnc3c(=S)nc[nH]c32)C(O)C1O (stereo not given)
T/C (endpoint: mean tumor weight (est.), dose: 1.56 mg/kg/injection, schedule: Q01DX011 (ip), vehicle: other, higher = larger tumour): 100 % of control | T/C (endpoint: mean tumor weight (est.), dose: 3.12 mg/kg/injection, schedule: Q01DX011 (ip), vehicle: other, higher = larger tumour): 78 % of control | T/C (endpoint: mean tumor weight (est.), dose: 25.0 mg/kg/injection, schedule: Q01DX011 (ip), vehicle: other, higher = larger tumour): 96 % of control | T/C (endpoint: median survival time, dose: 0.78 mg/kg/injection, schedule: Q01DX011 (ip), vehicle: other, higher = longer survival): 108 % of control | T/C (endpoint: median survival time, dose: 1.56 mg/kg/injection, schedule: Q01DX011 (ip), vehicle: other, higher = longer survival): 114 % of control and 120 % of control | T/C (endpoint: median survival time, dose: 3.12 mg/kg/injection, schedule: Q01DX011 (ip), vehicle: other, higher = longer survival): 95 % of control | T/C (endpoint: median survival time, dose: 6.25 mg/kg/injection, schedule: Q01DX011 (ip), vehicle: other, higher = longer survival): 110 % of control | T/C (endpoint: median survival time, dose: 12.5 mg/kg/injection, schedule: Q01DX011 (ip), vehicle: other, higher = longer survival): 112 % of control

CC(=O)OC(C1CO1)C(OC(C)=O)C1CO1 (stereo not given)
T/C (endpoint: median survival time, dose: 5.0 mg/kg/injection, schedule: Q01DX011 (ip), vehicle: saline, higher = longer survival): 105 % of control | T/C (endpoint: median survival time, dose: 10.0 mg/kg/injection, schedule: Q01DX011 (ip), vehicle: saline, higher = longer survival): 121 % of control

O=c1cnn(C2OC(CO)C(O)C2O)c(=O)[nH]1 (stereo not given)
T/C (endpoint: median survival time, dose: 75.0 mg/kg/injection, schedule: Q01DX009 (ip), vehicle: Klucel (hydroxypropylcellulose) (HPC), higher = longer survival): 112 % of control | T/C (endpoint: median survival time, dose: 150.0 mg/kg/injection, schedule: Q01DX009 (ip), vehicle: Klucel (hydroxypropylcellulose) (HPC), higher = longer survival): 120 % of control | T/C (endpoint: median survival time, dose: 300.0 mg/kg/injection, schedule: Q01DX009 (ip), vehicle: Klucel (hydroxypropylcellulose) (HPC), higher = longer survival): 121 % of control | T/C (endpoint: median survival time, dose: 600.0 mg/kg/injection, schedule: Q01DX009 (ip), vehicle: Klucel (hydroxypropylcellulose) (HPC), higher = longer survival): 119 % of control

CC(=O)[C@@]1(O)CC[C@H]2[C@@H]3C[C@H](C)C4=CC(=O)C=C[C@]4(C)[C@@]3(F)[C@@H](O)C[C@@]21C
T/C (endpoint: mean tumor weight, dose: 12.5 mg/kg/injection, schedule: Q01DX011 (ip), vehicle: steriod suspending solution, higher = larger tumour): 40 % of control | T/C (endpoint: mean tumor weight, dose: 25.0 mg/kg/injection, schedule: Q01DX011 (ip), vehicle: steriod suspending solution, higher = larger tumour): 26 % of control | T/C (endpoint: mean tumor weight, dose: 50.0 mg/kg/injection, schedule: Q01DX011 (ip), vehicle: steriod suspending solution, higher = larger tumour): 19 % of control | T/C (endpoint: median survival time, dose: 12.5 mg/kg/injection, schedule: Q01DX011 (ip), vehicle: steriod suspending solution, higher = longer survival): 107 % of control | T/C (endpoint: median survival time, dose: 25.0 mg/kg/injection, schedule: Q01DX011 (ip), vehicle: steriod suspending solution, higher = longer survival): 94 % of control and 112 % of control
